What all share (experiment): inhibition of tumour cell growth, NCI panel, 48 h
Assay [1] has as its system HL-60(TB) leukemia.
The test system of assay [2] is HOP-92 NSCLC.
In assay [3] the test system is HS 578T breast.
The subject of assay [4] is MDA-MB-231 breast.
Assay [5] deals with NCI-H226 lung.
Assay [6] concerns NCI/ADR-RES ovarian.
Assay [7] concerns OVCAR-4 ovarian.
For assay [8], the system named is SK-MEL-28 melanoma.
The test system of assay [9] is SNB-75 CNS.
Assay [10] deals with UO-31 renal.

In PubChem BioAssay (NCI) one finds GI50 and TGI data, which are given here for 15 molecules.

Each structure is given as a SMILES string.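 Dose response: 5 concentrations. Exposure: 48 h. Format: 96-well plates. Endpoint: linear interpolation; highest concentration if not reached. Abbreviation: GI50, concentration required for 50% inhibition of growth. TGI is the concentration that stops growth completely.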

Turning to `CCCC[C@H](NC(=O)[C@H]1CCCN1C)C(=O)N(C)[C@H](C[C@@H](OC(C)=O)c1nc(C(=O)N[C@@H](Cc2ccccc2)C[C@H](C)C(=O)OCC)cs1)C(C)C`, the GI50 in assay [1] was 0.0058 µM; in assay [2], 1.9 µM; in [3], 0.0186 µM; in assay [4], 0.018 µM; in [5], 0.531 µM; in assay [6], 0.542 µM. The GI50 in assay [7] was 0.357 µM; in assay [8] it was 0.029 µM; in [9], 0.0152 µM; in assay [10] it was 0.209 µM. The TGI is 0.0253 µM in [1]; 32.7 µM in assay [2]; 6.92 µM in assay [3]; 0.844 µM in assay [4]; 16.4 µM in [5]; above 33.3 µM in [6]. Moreover, the TGI in assay [7] is above 33.3 µM; in assay [8] it was 17.4 µM; in assay [9] it was 8.92 µM; in assay [10] it was above 33.3 µM.

On to `Nc1ccn(Cc2ccc(C34CC5CC(CC(C5)C3)C4)c(O)c2)c(=O)n1`, for which the GI50 in assay [1] is 62.9 µM; in assay [2], 22.5 µM; in assay [3], 14.4 µM; in assay [4], above 100 µM; in assay [5] it was above 100 µM; in [6], above 100 µM. The GI50 in [7] is above 100 µM; in [8], above 100 µM; in assay [9], 24 µM; in assay [10], above 100 µM. The TGI in assay [1] is above 100 µM; in assay [2], 71.4 µM; in [3], above 100 µM; in assay [4] it was above 100 µM; in [5], above 100 µM; in [6], above 100 µM. In addition, the TGI in assay [7] was above 100 µM; in assay [8], above 100 µM; in assay [9], 84 µM; in [10], above 100 µM.

As for `CCN(CC)c1ccc(C(=C2C=CC(=[N+](CC)Cc3cccc(S(=O)(=O)O)c3)C=C2)c2ccc(N(CC)Cc3cccc(S(=O)(=O)O)c3)cc2)cc1`, the GI50 is 4.38 µM in assay [1]; 15.2 µM in [2]; 2.86 µM in assay [3]; 9.61 µM in [4]; 9.07 µM in [5]; above 100 µM in [6]. Besides, the GI50 in assay [7] was 8.71 µM; in assay [8] it was 15.6 µM; in assay [9], 2.75 µM; in assay [10] it was 16.3 µM. Further, the TGI was 17.4 µM in [1]; 65.8 µM in assay [2]; above 30.5 µM in assay [3]; above 92.6 µM in [4]; above 90.2 µM in assay [5]; above 100 µM in [6]. In addition, the TGI is above 100 µM in assay [7], above 100 µM in assay [8], 17.3 µM in [9] and above 91.9 µM in [10].

In the case of `Nc1c(C(=O)Nc2cccc([N+](=O)[O-])c2)sc2nc3c(cc12)C(O)CCC3` (stereo not given), the GI50 in [1] is 2.37 µM; in [2], 9.54 µM; in assay [3] it was 11 µM; in [4] it was 21.3 µM; in assay [5] it was 29.6 µM; in [6] it was 4.72 µM. In addition, the GI50 in assay [7] is above 36.2 µM; in [8], 16.9 µM; in [9], 5.38 µM; in [10] it was above 100 µM. The TGI in [1] is above 100 µM; in assay [2] it was above 67 µM; in [3], above 100 µM; in assay [4], above 100 µM; in assay [5], above 100 µM; in assay [6], above 100 µM. For the same molecule, the TGI in assay [7] is above 100 µM; in assay [8] it was above 100 µM; in assay [9], 30.5 µM; in [10], above 100 µM.

With `CCN(CC)CCn1ccc(=O)c2cc3c(=O)ccn(CCN(CC)CC)c3c(C)c21`, the TGI in assay [1] was found to be 3.54 µM; in assay [2], 19.5 µM; in [3] it was 17.5 µM; in assay [4] it was 18.3 µM; in assay [5], 23.8 µM; in assay [6], 5.2 µM. The TGI in assay [7] stood at 9.43 µM; in assay [8], 35.1 µM; in [9], 22.7 µM; in assay [10], 17.1 µM.

Consider `C[C@H](Nc1ncnc2nc[nH]c12)c1cc2cccc(Cl)c2c(=O)n1-c1ccccc1`, for which the GI50 in assay [1] was 3.37 µM; in assay [2], 1.38 µM; in assay [3], 0.631 µM; in assay [4], 46.4 µM; in assay [5], above 77.4 µM; in [6], above 100 µM. The GI50 in [7] is above 100 µM; in [8] it was 11.8 µM; in assay [9], 0.229 µM; in assay [10], 1.67 µM. Also, the TGI is 99.5 µM in [1]; 69.7 µM in assay [2]; 14.5 µM in assay [3]; above 100 µM in assay [4]; above 100 µM in assay [5]; above 100 µM in assay [6]. In addition, the TGI in [7] is above 100 µM; in assay [8], above 100 µM; in assay [9], 55.2 µM; in assay [10] it was above 75.3 µM.

On to `COc1c(CCC[P+](c2ccccc2)(c2ccccc2)c2ccccc2)cc2c(c1OC)OCO2`, for which the GI50 in assay [1] was 0.339 µM; in assay [2], 0.507 µM; in assay [3], 1.72 µM; in assay [4], 2.14 µM; in [5], 3.3 µM; in assay [6], above 100 µM. The GI50 was 1.59 µM in assay [7], 0.769 µM in assay [8], 1.3 µM in assay [9] and 11.9 µM in assay [10]. Besides, the TGI in [1] is 1.48 µM; in assay [2], 4.93 µM; in assay [3] it was 13.4 µM; in assay [4], 10.9 µM; in assay [5], 42.2 µM; in [6], above 100 µM. Besides, the TGI turned out to be 12.5 µM in [7], 14.8 µM in assay [8], 5.18 µM in [9] and 47.2 µM in [10].

For the molecule `N#Cc1cnc2cc(OC[C@H](O)CO)c(NC(=O)CC3CSSC3)cc2c1Nc1ccc(OCc2cccc(F)c2)c(Cl)c1`, the GI50 was 0.806 µM in assay [1]; 2.23 µM in [2]; 0.447 µM in [3]; 0.288 µM in assay [4]; 0.335 µM in assay [5]; 2.72 µM in assay [6]. The GI50 in assay [7] is 0.619 µM; in assay [8], 0.126 µM; in assay [9], 0.879 µM; in [10] it was 2.11 µM. In addition, the TGI in [1] worked out at 1.93 µM; in assay [2] it was 8.04 µM; in assay [3] it was 1.69 µM; in assay [4], 1.03 µM; in assay [5], 1.49 µM; in [6], 5.1 µM. For the same molecule, the TGI in [7] worked out at 1.57 µM; in [8], 0.319 µM; in [9], 1.74 µM; in assay [10], 7.75 µM.

For `C[C@@H](C(=O)Nc1ccc(Cl)cc1)C1CCC(c2ccnc3ccc(F)cc23)CC1` (stereo not given in full), the GI50 in assay [1] is 5.22 µM; in [2] it was 2.85 µM; in assay [3], 9.3 µM; in assay [4], 7.83 µM; in assay [5] it was 13.7 µM; in assay [6] it was 10.1 µM. In addition, the GI50 in assay [7] is 5.93 µM; in assay [8] it was 10.4 µM; in [9], 12.5 µM; in assay [10], 3.94 µM. Besides, the TGI in assay [1] is 24.7 µM; in [2], 9.15 µM; in assay [3], 68.5 µM; in assay [4], 48 µM; in [5], above 100 µM; in assay [6], 48 µM. In addition, the TGI in assay [7] is above 100 µM; in assay [8] it was above 100 µM; in [9], 92.3 µM; in [10] it was above 100 µM.

As for `O=C(c1ccccc1)C1N=NCC1c1ccc([N+](=O)[O-])cc1` (stereo not given), the TGI in [1] is 67.3 µM; in assay [2] it was 88.1 µM; in assay [3], above 100 µM; in assay [4] it was above 100 µM; in assay [5], above 100 µM; in [6], above 100 µM. For the same molecule, the TGI in assay [7] is above 100 µM; in assay [8], above 100 µM; in [9], 69.2 µM; in assay [10], above 100 µM.

For the molecule `O=C(CC(=O)CC(O)(C(F)(F)F)C(F)(F)F)CC(O)(C(F)(F)F)C(F)(F)F`, the TGI in [1], in [2], in assay [3], in [4], in [5] and in [6] was above 10 µM each time. For the same molecule, the TGI in assay [7], in [8], in assay [9] and in [10] was above 10 µM throughout.

As for `COC(=O)[C@H](Cc1cn(C)cn1)NC(=O)[C@H](Cc1c[nH]c2ccccc12)NC(=O)Nc1cc(C(F)(F)F)cc(C(F)(F)F)c1`, the GI50 in assay [1], in [2], in [3], in assay [4], in assay [5] and in [6] was above 10 µM throughout. Moreover, the GI50 in assay [7], in [8], in assay [9] and in assay [10] was above 10 µM throughout. In addition, the TGI in assay [1], in assay [2], in assay [3], in assay [4], in assay [5] and in assay [6] was above 10 µM throughout. The TGI in [7], in assay [8], in assay [9] and in assay [10] was above 10 µM in each case.

With `CCN(CC)S(=O)(=O)c1ccc(OC)c(Nc2ncc(-c3ccccc3)o2)c1`, the GI50 was above 15 µM in assay [1]; 7.12 µM in assay [2]; above 14.4 µM in assay [3]; above 13.9 µM in assay [4]; above 5.28 µM in assay [5]; above 17.8 µM in [6]. In addition, the GI50 in assay [7] is 5.57 µM; in [8], above 25 µM; in assay [9], above 9.36 µM; in assay [10], above 12.9 µM. Besides, the TGI in assay [1], in assay [2], in [3], in [4], in assay [5] and in assay [6] was above 25 µM in each case. Further, the TGI in assay [7], in assay [8], in assay [9] and in assay [10] was above 25 µM in each case.

As for `COC(=O)/C=C/C=C(c1ccccc1)c1ccccc1`, the GI50 in assay [1] was 3.26 µM; in assay [2], 3.52 µM; in assay [3], 8.65 µM; in assay [4], 11.1 µM; in assay [5], 14.3 µM; in assay [6] it was 3.12 µM. The GI50 in assay [7] is 8.59 µM; in assay [8], 7.84 µM; in assay [9] it was 2.72 µM; in [10] it was 3.27 µM. The TGI was 26.1 µM in [1]; 38.8 µM in [2]; 46 µM in [3]; 36 µM in assay [4]; above 100 µM in assay [5]; 17 µM in [6]. Moreover, the TGI in assay [7] was above 100 µM; in [8], above 100 µM; in [9], 53.1 µM; in [10], 37.8 µM.

In the case of `CNC(=O)n1ccc2cc(Oc3ccnc(NC(=O)c4ccc(C5CCN(CCO)CC5)cc4)c3)c(OCCOC)cc21`, the GI50 in assay [1] was 2.13 µM; in assay [2], 3.48 µM; in assay [3], 1.84 µM; in assay [4], 2.46 µM; in assay [5], 12.1 µM; in assay [6], 12.9 µM. Further, the GI50 in assay [7] is 1.99 µM; in assay [8], 6.33 µM; in assay [9], 1.84 µM; in [10] it was 16.5 µM. Moreover, the TGI came to 4.58 µM in assay [1]; 20.6 µM in assay [2]; 7.37 µM in assay [3]; 6.11 µM in [4]; 31.3 µM in assay [5]; 42.4 µM in assay [6]. The TGI in assay [7] was found to be 5.78 µM; in assay [8], 19.2 µM; in assay [9], 7.28 µM; in assay [10] it was 33.2 µM.
